The values below come from ChEMBL document CHEMBL1221343, “Caelestines A-D, brominated quinolinecarboxylic acids from the Australian ascidian Aplidium caelestis” (J Nat Prod, 2010).

By inhibition is commonly meant the relative decrease from the control value, in per cent.

The source made the active and inactive calls. The rule behind the calls is not given here.

The test system of data set [1] is MCF7. The data set can be described thus: Cytotoxicity against human MCF7 cells at 100 uM. The data set is classed as functional.
Data set [2] concerns MM96L. In words: Cytotoxicity against human MM96L cells at 100 uM. The data set is classed as functional.
Data set [3] is described as follows: Cytotoxicity against human NFF cells at 100 uM. Format: cell-based. The note with it: read-out: INH.
The test system of data set [4] is Staphylococcus aureus. In words: Antimicrobial activity against multidrug-resistant Staphylococcus aureus ATCC 43300 at 0.1 to 10 mM after 20 hrs by CLSI broth microdilution method. The data set is classed as functional, organism-based. Background: Dilution methods test growth across graded concentrations, often in twofold steps.
The test system of data set [5] is Staphylococcus aureus. The data set can be described thus: Antimicrobial activity against methicillin-sensitive Staphylococcus aureus ATCC 25923 at 0.1 to 10 mM after 20 hrs by CLSI broth microdilution method. The data set is classed as functional, organism-based.
Data set [6] has as its system Escherichia coli. The data set can be described thus: Antimicrobial activity against Escherichia coli ATCC 25922 at 0.1 to 10 mM after 20 hrs by CLSI broth microdilution method. The data set is classed as functional, organism-based.
For data set [7], the system named is Enterococcus faecalis. In words: Antimicrobial activity against Enterococcus faecalis ATCC 19433 at 0.1 to 10 mM after 20 hrs by CLSI broth microdilution method. The data set is classed as functional, organism-based.
For data set [8], the system named is Pseudomonas aeruginosa. The data set can be described thus: Antimicrobial activity against Pseudomonas aeruginosa NCTC 10662 at 0.1 to 10 mM after 20 hrs by CLSI broth microdilution method. Format: functional, organism-based.
The subject of data set [9] is Candida albicans. The data set can be described thus: Antimicrobial activity against Candida albicans ATCC 10231 at 0.1 to 10 mM after 20 hrs by CLSI broth microdilution method. The data set is classed as functional, organism-based.

`O=C(O)c1cc(=O)c2cc(Br)c(Br)cc2[nH]1`: the inhibition at 100 µM in data set [1] was 49%; in data set [2], 69%. The cytotoxicity at 100 µM in [3] came to 66%. The outcome in data set [4], in data set [5], in data set [6], in data set [7], in [8] and in data set [9] was inactive.
`COc1c(Br)c(Br)cc2c(=O)cc(C(=O)O)[nH]c12`: the inhibition at 100 µM in data set [1] turned out to be 38%; in [2], 52%. For the same compound, the cytotoxicity at 100 µM in data set [3] worked out at 68%. Moreover, the outcome in data set [4], in data set [5], in [6], in data set [7], in data set [8] and in data set [9] was inactive.
In the case of `COc1cc(Br)cc2c(=O)cc(C(=O)O)[nH]c12`, the results for the inhibition at 100 µM in [1] and in data set [2] were 40% and 54%, respectively. In addition, in data set [3], the cytotoxicity at 100 µM stood at 58%. Moreover, the result in data set [4], in data set [5], in [6], in data set [7], in data set [8] and in [9] was inactive.
Turning to `O=C(O)c1cc(O)c2ccc(Br)cc2n1`, the inhibition at 100 µM was 39% in data set [1] and 62% in data set [2]. In addition, the cytotoxicity at 100 µM in data set [3] stood at 57%. The result in data set [4], in data set [5], in [6], in data set [7], in data set [8] and in data set [9] was inactive.
